Reference: patent publication US12157722B1, “Crystalline hydrochloride salts of N-ethyl-2-(5-fluoro-1H-indol-3-yl)-N-methylethan-1-amine” (Gilgamesh Pharmaceuticals, Inc., priority 2023, dated 2024)

Tests used:
[1] = Exposure of dry cake to humidity, solid form checked by XRPD; format: physicochemical; details: for XRPD pattern, dry cake exposed to humidity: monofumarate solids exposed to humidity (90% RH/30° C.)
[2] = Dynamic Vapor Sorption (DVS); format: physicochemical; details: 25° C., 75% RH
Protocol: Dynamic Vapor Sorption (DVS) was performed using a Q5000SA. The sample (5-15 mg) was loaded into a metallic quartz sample pan, suspended from a microbalance, and exposed to a humidified stream of nitrogen gas. Weight changes were relative to a matching empty reference pan opposite the sample, suspended from the microbalance. The sample was held for a minimum of 10 min at each level and only progressed to the next humidity level if there was <0.002% change in weight between measurements (interval: 5 s) or 45 min had elapsed (for 5-65% RH) or 2 h had elapsed (for 80 and 95% RH). The following programs were used: • 1—Equilibration at 50% RH • 2—50% to 5%. (50%, 35%, 20%, and 5%) • 3—5% to 95%(5%, 20%, 35%, 50%, 65%, 80%, and 95%) • 4—95% to 5%(95%, 80%, 65%, 50%, 35%, 20%, and 5%) • 5—5% to 50% (5%, 20%, 35%, and 50%) • 1—Equilibration at 50% RH • 2—50% to 2%. (50%, 40%, 30%, 20%, 10%, and 2%) • 3—2% to 75%(2%, 10%, 20%, 30%, 40%, 50%, 60%, 70% and 75%) • 4—75% to 2%(75%, 70%, 60%, 50%, 40%, 30%, 20%, 10% and 2%) • 5—2% to 50% (2%, 10%, 20%, 30%, 40% and 50%) • 1—Equilibration at 50% RH • 2—50% to 2%.(50%, 40%, 30%, 20%, 10%, and 2%) • 3—2% to 65% (2%, 10%, 20%, 30%, 40%, 50%, 60% and 65%) • 4—65% to 2% (65%, 60%, 50%, 40%, 30%, 20%, 10% and 2%) • 5—2% to 50% (2%, 10%, 20%, 30%, 40% and 50%). […]

SMILES | XRPD pattern, dry cake exposed to humidity [1] | further results
CCN(C)CCc1c[nH]c2ccc(F)cc12.O=C(O)/C=C/C(=O)O [monofumarate Form 2, N-ethyl-2-(5-fluoro-1H-indol-3-yl)-N-methylethan-1-amine monofumarate Form 2] | slowly converted to Form 1 | 
CCN(C)CCc1c[nH]c2ccc(F)cc12.O=C(O)/C=C/C(=O)O [monofumarate Form 1, N-ethyl-2-(5-fluoro-1H-indol-3-yl)-N-methylethan-1-amine monofumarate Form 1] | Form 1 | 
CCN(C)CCc1c[nH]c2ccc(F)cc12.Cl [hydrochloride Form 1, N-ethyl-2-(5-fluoro-1H-indol-3-yl)-N-methylethan-1-amine hydrochloride Form 1] |  | DVS isotherm, equilibration behaviour [2]: did not reach equilibrium at 75% RH
CCN(C)CCc1c[nH]c2ccc(F)cc12.CCN(C)CCc1c[nH]c2ccc(F)cc12.O=C(O)/C=C/C(=O)O [hemifumarate Form 1, N-ethyl-2-(5-fluoro-1H-indol-3-yl)-N-methylethan-1-amine hemifumarate Form 1] |  | XRPD pattern, Humid ([1]; hemifumarate dry cake from EtOH:MTBE (1:1 vol.) exposed to humidity): deliquescent
